Reference: PMC7106896, “Synthesis and biological evaluation of 2-(4-methylsulfonyl phenyl) indole derivatives: multi-target compounds with dual antimicrobial and anti-inflammatory activities” (BMC Chemistry, 2020)
Where “and” joins values, the source holds several entries; their conditions need not be identical. Equal entries are not always repeated.

Tests used:
[1] = tested on: carrageenan-induced rat paw edema; test: Carrageenan-induced rat paw edema assay; assay type: in vivo; settings: for Edema thickness (mm) ± SEM: n = 4
Description: Pretreatment of rats with compounds 7a–k, 8a–c, and 9a–c before injection with carrageenan in rat paw which induces inflammation and then the percentage of paw edema reduction was measured after certain hours according to previously reported procedures.

[2] = tested on: Pseudomonas aeruginosa (ATCC 27853); test: Antimicrobial screening (CO-ADD), growth inhibition at single concentration; assay type: cell-based; settings: ATCC27853, at 32 µg/mL concentration, read-out: growth inhibition % Pa (P. aeruginosa)
Description: (§1) The antimicrobial study was performed by CO-ADD (The Community for Antimicrobial Drug Discovery), funded by the Wellcome Trust (UK) and The University of Queensland (Australia). Evaluation of all synthesized compounds for their antimicrobial activities was done against five pathogenic bacteria, methicillin-resistant Staphylococcus aureus (ATCC 43300) as Gram-positive bacteria, Escherichia coli (ATCC 25922), Klebsiella pneumonia (ATCC 700603), Acinetobacter baumannii (ATCC 19606) and Pseudomonas aeruginosa (ATCC 27853) as Gram-negative bacteria and antifungal activity against two pathogenic fungal strains Candida albicans (ATCC 90028) and Cryptococcus neoformans var. grubii (H99; ATCC 208821) (Table 1).

[3] = tested on: methicillin-resistant Staphylococcus aureus (ATCC 43300); test: as above; assay type: cell-based; settings: ATCC 43300 / MRSA, at 32 µg/mL concentration, read-out: growth inhibition % Sa (MRSA)
Description: as §1

[4] = tested on: Acinetobacter baumannii (ATCC 19606); test: as above; assay type: cell-based; settings: ATCC19606, at 32 µg/mL concentration, read-out: growth inhibition % Ab (A. baumannii)
Description: as §1

[5] = tested on: Candida albicans (ATCC 90028); test: Antifungal screening (CO-ADD), growth inhibition at single concentration; assay type: cell-based; settings: ATCC90028, at 32 µg/mL concentration, read-out: growth inhibition % Ca (C. albicans)
Description: as §1

human recombinant COX-2 = test: In vitro COX inhibition colorimetric assay; assay type: biochemical; settings: COX-1 IC50/COX-2 IC50
Ovine COX-1 = biological target: T1, Ovine COX-1 (Ovis aries, UniProt P05979); test: In vitro COX inhibition colorimetric assay; assay type: biochemical
T1 construct: purchased Cayman Chemical, Ann Arbor, MI, USA 760111
T1 sequence (P05979 25-600): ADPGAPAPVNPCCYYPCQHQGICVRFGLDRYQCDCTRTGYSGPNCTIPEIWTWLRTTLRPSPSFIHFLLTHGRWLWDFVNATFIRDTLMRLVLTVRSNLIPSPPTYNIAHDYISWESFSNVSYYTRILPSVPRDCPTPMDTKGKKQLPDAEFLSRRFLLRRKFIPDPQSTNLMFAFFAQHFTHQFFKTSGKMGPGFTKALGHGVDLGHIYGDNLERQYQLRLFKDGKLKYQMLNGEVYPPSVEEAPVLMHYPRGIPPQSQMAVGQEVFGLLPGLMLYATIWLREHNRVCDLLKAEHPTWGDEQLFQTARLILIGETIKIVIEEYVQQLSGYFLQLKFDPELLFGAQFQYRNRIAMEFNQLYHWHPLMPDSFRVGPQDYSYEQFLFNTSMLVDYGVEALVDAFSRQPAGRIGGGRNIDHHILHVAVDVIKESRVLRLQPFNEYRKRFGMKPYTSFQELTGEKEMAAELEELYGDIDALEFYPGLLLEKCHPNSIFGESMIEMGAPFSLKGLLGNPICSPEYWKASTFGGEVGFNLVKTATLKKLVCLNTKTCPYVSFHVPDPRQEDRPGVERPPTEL

[6] = tested on: Klebsiella pneumonia (ATCC 700603); test: Antimicrobial screening (CO-ADD), growth inhibition at single concentration; assay type: cell-based; settings: Klebsiella pneumoniae, ATCC700603; at 32 µg/mL concentration; read-out: growth inhibition % Kp (K. pneumoniae)
Description: as §1

SMILES | Edema inhibition % ([1]; 1 h) | Edema thickness (mm) ± SEM ([1]; 1 h) | Edema inhibition % ([1]; 3 h) | Edema thickness (mm) ± SEM ([1]; 3 h) | Edema inhibition % ([1]; 6 h) | Edema thickness (mm) ± SEM ([1]; 6 h) | inhibition at 32 µg/mL [2] | inhibition at 32 µg/mL [3] | inhibition at 32 µg/mL [4] | inhibition at 32 µg/mL [5] | Selectivity index (SI) (human recombinant COX-2) | IC50 (Ovine COX-1) | melting point | inhibition at 32 µg/mL [6]
Cc1ccc(-c2cc(C(F)(F)F)nn2-c2ccc(S(N)(=O)=O)cc2)cc1 [Celecoxib, celecoxib, reference compound] | 68.9% | 0.810 ± 0.074 mm | 95.5% | 0.100 ± 0.009 mm | 94.7% | 0.100 ± 0.005 mm |  |  |  |  |  |  |  | 
CS(=O)(=O)c1ccc(NN=Cc2c(-c3ccc(S(C)(=O)=O)cc3)[nH]c3ccccc23)cc1 [Compound 7b, 2-(4-(Methylsulfonyl)phenyl)-3-((2-(4-(methylsulfonyl)phenyl)hydrazono)methyl)-1H-indole] | 76.1% | 0.627 ± 0.045 mm | 91.2% | 0.196 ± 0.017 mm | 93.5% | 0.123 ± 0.009 mm | 3.8% | 25.6% | 35.5% | 9.55% | 124.10 | 12.4 µM | 228 to 230 °C | 
Cc1ccc2[nH]c(-c3ccc(S(C)(=O)=O)cc3)c(/C=N/Nc3ccc(S(C)(=O)=O)cc3)c2c1 [Compound 7d, 5-Methyl-2-(4-(methylsulfonyl)phenyl)-3-((2-(4-(methylsulfonyl)phenyl) hydraz-ono)methyl)-1H-indole] | 51.6% | 1.270 ± 0.015 mm | 77.5% | 0.502 ± 0.044 mm | 78.6% | 0.405 ± 0.018 mm |  | 15.6% | 35% | 2.54% | 69.33 | 10.4 µM | 262 to 264 °C | 4.86%
Cc1ccc2[nH]c(-c3ccc(S(C)(=O)=O)cc3)c(/C=N/Nc3ccc(S(N)(=O)=O)cc3)c2c1 [Compound 7e, 4-(2-((5-Methyl-2-(4-(methylsulfonyl)phenyl)-1H-indol-3-yl)methylene) hydrazine-yl) benzenesulfonamide] | 53.9% | 1.209 ± 0.11 mm | 71.1% | 0.645 ± 0.01 mm | 79.9% | 0.381 ± 0.007 mm |  | 7.58% | 43.6% | 28.7% | 31.29 | 9.7 µM | 186 to 188 °C | 
Cc1ccc2[nH]c(-c3ccc(S(C)(=O)=O)cc3)c(C=NNc3ccc(F)cc3)c2c1 [Compound 7f, 3-((2-(4-Fluorophenyl)hydrazono)methyl)-5-methyl-2-(4-(methylsulfonyl)phenyl)-1H-indole] | 60.5% | 1.036 ± 0.009 mm | 72.7% | 0.609 ± 0.03 mm | 79.2% | 0.394 ± 0.01 mm |  | 8.33% | 66.7% | 3.5% | 57.23 | 9.73 µM | 159 to 161 °C | 8.05%
CS(=O)(=O)c1ccc(N/N=C/c2c(-c3ccc(S(C)(=O)=O)cc3)[nH]c3ccc(F)cc23)cc1 [Compound 7h, 5-Fluoro-2-(4-(methylsulfonyl)phenyl)-3-((2-(4-(methylsulfonyl)phenyl) hydraz-ono)methyl)-1H-indole] | 75.4% | 0.645 ± 0.058 mm | 89.4% | 0.236 ± 0.008 mm | 92.7% | 0.138 ± 0.006 mm | 7.97% | 30.3% | 51.8% | 25.3% | 112.7 and 112.72 | 12.4 µM | 187 to 188 °C | 23.6%
CS(=O)(=O)c1ccc(-c2[nH]c3ccc(F)cc3c2C=NNc2ccc(F)cc2)cc1 [Compound 7j, 5-Fluoro-3-((2-(4-fluorophenyl)hydrazono)methyl)-2-(4-(methylsulfonyl)phenyl)-1H-indole] | 64.3% | 0.936 ± 0.064 mm | 78.6% | 0.477 ± 0.027 mm | 71% | 0.549 ± 0.013 mm |  | 30.6% | 46.2% | 1.91% | 98.18 | 10.8 µM | 200 to 202 °C | 12.3%
CS(=O)(=O)c1ccc(-c2[nH]c3ccccc3c2-c2nc3cc(Cl)ccc3[nH]2)cc1 [Compound 8a, 5-Chloro-2-(2-(4-(methylsulfonyl)phenyl)-1H-indol-3-yl)-1H-benzo[d]imidazole] | 52.5% | 1.246 ± 0.076 mm | 58% | 0.937 ± 0.046 mm | 56.4% | 0.826 ± 0.078 mm |  | 13.6% |  | 7.71% | 81.84 | 10.6 µM | 210 to 212 °C | 
Cc1ccc2[nH]c(-c3ccc(S(C)(=O)=O)cc3)c(-c3nc4cc(Cl)ccc4[nH]3)c2c1 [Compound 8c, 5-Chloro-2-(5-methyl-2-(4-(methylsulfonyl)phenyl)-1H-indol-3-yl)-1H-benzo[d]imidazole] | 67.9% | 0.842 ± 0.062 mm | 71.9% | 0.627 ± 0.05 mm | 74.2% | 0.489 ± 0.032 mm |  | 4.62% |  | 1.65% | 93.58 | 11.2 µM | 217 to 219 °C | 
CS(=O)(=O)c1ccc(-c2[nH]c3ccccc3c2C=NO)cc1 [Compound 9a, 2-(4-(Methylsulfonyl)phenyl)-1H-indole-3-carbaldehyde oxime] | 77.2% | 0.598 ± 0.050 mm | 61.8% | 0.852 ± 0.073 mm | 62.3% | 0.714 ± 0.052 mm | 2.49% |  | 42.1% | 9.15% | 81.84 | 10.6 µM | 199 to 201 °C | 14.8%
Cc1ccc2[nH]c(-c3ccc(S(C)(=O)=O)cc3)c(C=NO)c2c1 [Compound 9c, 5-Methyl-2-(4-(methylsulfonyl)phenyl)-1H-indole-3-carbaldehyde oxime] | 55.2% |  | 68.6% | 0.435 ± 0.033 mm | 61.7% | 0.504 ± 0.009 mm |  |  | 33.7% | 4.88% | 34.33 | 8.24 µM | 212 to 214 °C | 1.19%
COc1ccc2c(c1)c(CC(=O)O)c(C)n2C(=O)c1ccc(Cl)cc1 [Indomethacin, indomethacin, reference compound] | 70.7% | 0.768 ± 0.050 mm | 96% | 0.075 ± 0.007 mm | 96.6% | 0.075 ± 0.004 mm |  |  |  |  |  |  |  | 
